Reference: patent US20180028601A1, “METHODS AND COMPOSITIONS FOR TREATING CANCER” (Yissum Research Development Company of The Hebrew …, priority 2016, published 2018)

Assays:
[1] = test system: human colon adenocarcinoma sections; test: Binding of fluorescently labeled F. nucleatum to human colon tissue sections / TMA; conditions: 300 mM GalNAc
Description: Tissue Microarray Analysis—Colon cancer tissue array CO2601 (US Biomax) and array CO809a (US Biomax) were used in these studies. Details about the cases for each core on the array are available on the US Biomax Web site.
Immunofluorescence and Section Preparation—Fixed tissue sections were stained with H&E or processed for immunofluorescence microscopy. Sections were blocked and incubated with fluorescent PNA or fluorescent bacteria and imaging analysis are as described in Abed et al. 2016. ibid, Supplemental Experimental Procedures. GalNAc removal was performed by incubating sections with O-glycanase.; see Supplemental Experimental Procedures for experimental details.

[2] = test system: erythrocytes; test: Hemagglutination assay; format: cell-based; conditions: bacteria preincubated with 25 mM GalNAc
Description: Hemagglutination Assays—Hemagglutination assays were performed as previously described (Coppenhagen-Glazer et al., 2015, ibid). For inhibition assays, washed bacteria were preincubated with 25 mM GalNAc (Sigma-Aldrich) for 30 min prior to incubation with erythrocytes.

[3] = test system: high and intermediate Gal-GalNAc-expressing CRC cell lines (HCT116, CT26, RKO); test: Flow cytometry attachment and GalNAc competition assays, high and intermediate Gal-GalNAc-expressing lines; format: cell-based, human and mouse; conditions: p=0.04167
Description: Flow Cytometry and Competition Assays—FITC-labeled F. nucleatum were incubated with cells at a MOI of 10 for 30 min at room temperature. FITC-labeled PNA lectin (Sigma-Aldrich) was incubated at a final concentration of 140 nM per 2.5×10^5 cells. For competition experiments, bacteria or PNA was incubated with GalNAc (concentration range 0, 50, 100, and 300 mM) for 30 min prior to incubation with cells. Flow cytometry methods and analysis are as described in Abed et al. 2016. ibid, Supplemental Experimental Procedures.

**Q.** Which results are given for CC(=O)N[C@H]1C(O)O[C@H](CO)[C@H](O)[C@@H]1O (stereo partly shown) [GalNAc]?
**A.** inhibition of binding of F. nucleatum ATCC 23726 to human CRC tissue sections [1]: inhibits binding; inhibition of CTI-2 hemagglutination [2]: inhibited; inhibition of F. nucleatum ATCC 23726 binding to cells ([3]; GalNAc 0, 50, 100, 300 mM): inhibited by GalNAc in a statistically significant, dose-dependent manner; inhibition of CTI-2 binding to cells ([3]; soluble GalNAc 0-300 mM): inhibited by the addition of soluble GalNAc in a dose-dependent manner
